In patent publication US20240360139A1, “BLOOD BRAIN BARRIER PENETRATING SELECTIVE INHIBITORS OF ROCK2 PROTEIN KINASES AND USES THEREOF” (GENOSCO Inc., priority 2023, published 2024):

Assays:
[1] = molecular target: T1, Recombinant ROCK1 (amino acids 1-477) (Homo sapiens, UniProt Q13464); experiment: ROCK inhibition assay, LANCE Ultra TR-FRET (ROCK1); format: biochemical; details: 1 mM of ATP
T1 construct: Recombinant ROCK1 (amino acids 1-477)

[2] = molecular target: T2, Recombinant ROCK2 (amino acids 5-554) (Homo sapiens, UniProt O75116); experiment: ROCK inhibition assay, LANCE Ultra TR-FRET (ROCK2); format: biochemical; details: 1 mM of ATP
T2 construct: ROCK2 (amino acids 5-554)

[3] = Blood-brain barrier penetration, brain-to-plasma ratio in mouse; format: in vivo; details: CD-1 mouse, IV 1 mg/kg, n=3
Description: (§1) The concentrations of compounds of (1) in blood and brain were measured from plasma and brain samples taken 0.25 and 2 hours after intravenous (IV) administration of the compounds of (1) at 1 mg/kg in CD-1 mouse and Sprague-Dawley rat (n=3). After euthanizing the mouse and rat, blood samples from cardiac puncture and brain tissue were collected. Plasma or brain homogenate was vortexed for 1 min. with internal standard in Methanol/Acetonitrile (1:1, v/v), and centrifuged at 4000-4500 rpm for 15 min. at room temperature to precipitate proteins. Subsequently, the supernatant was introduced into the LC/MS/MS system. An AB Sciex API 5500 mass spectrometer system (Sciex, USA) was used for quantitative analysis. The concentrations compounds of (1) in plasma and brain sample were determined using the standard calibration curve and brain-to-plasma concentration ratio was calculated.

[4] = Blood-brain barrier penetration, brain-to-plasma ratio in rat; format: in vivo; details: Sprague-Dawley rat, IV 1 mg/kg, n=3
Description: as §1

T2 sequence (O75116 5-554): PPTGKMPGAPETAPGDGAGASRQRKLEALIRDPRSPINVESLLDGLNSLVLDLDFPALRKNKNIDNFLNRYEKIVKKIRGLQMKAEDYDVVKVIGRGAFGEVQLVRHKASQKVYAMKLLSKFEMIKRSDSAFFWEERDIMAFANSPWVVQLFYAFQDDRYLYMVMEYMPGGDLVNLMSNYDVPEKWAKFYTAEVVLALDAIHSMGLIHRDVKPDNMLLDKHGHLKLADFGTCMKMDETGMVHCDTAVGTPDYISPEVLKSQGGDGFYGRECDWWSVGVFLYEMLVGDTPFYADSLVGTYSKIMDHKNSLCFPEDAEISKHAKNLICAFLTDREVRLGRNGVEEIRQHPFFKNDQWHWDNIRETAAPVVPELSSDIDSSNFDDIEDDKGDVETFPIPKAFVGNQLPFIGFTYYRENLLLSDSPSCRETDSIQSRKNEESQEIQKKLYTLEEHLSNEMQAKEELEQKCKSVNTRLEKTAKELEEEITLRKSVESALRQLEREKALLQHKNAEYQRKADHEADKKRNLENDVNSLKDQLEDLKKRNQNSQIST
T1 sequence (Q13464 1-477): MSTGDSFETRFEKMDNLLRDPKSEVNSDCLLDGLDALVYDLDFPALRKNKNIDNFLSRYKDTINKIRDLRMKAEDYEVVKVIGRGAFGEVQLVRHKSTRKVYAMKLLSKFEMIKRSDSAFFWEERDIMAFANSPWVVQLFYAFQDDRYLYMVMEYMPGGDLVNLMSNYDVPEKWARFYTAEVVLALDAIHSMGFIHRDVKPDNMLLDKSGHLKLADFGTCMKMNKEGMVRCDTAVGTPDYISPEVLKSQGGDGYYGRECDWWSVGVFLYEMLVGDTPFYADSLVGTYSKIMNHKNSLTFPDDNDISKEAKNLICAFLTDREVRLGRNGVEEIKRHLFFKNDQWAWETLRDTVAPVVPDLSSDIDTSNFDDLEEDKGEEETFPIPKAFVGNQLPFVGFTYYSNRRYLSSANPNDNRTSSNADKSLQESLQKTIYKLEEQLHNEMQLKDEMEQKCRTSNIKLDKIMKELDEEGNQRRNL

SMILES | IC50 [1] [nM] | IC50 [2] [nM] | Kp at 0.25 h [3] | Kp at 2 h [3] | Kp at 0.25 h [4] | Kp at 2 h [4]
CNCCn1cc(C(=O)C2COc3ccc(OC)cc3C2)c2ccc(-c3cn[nH]c3F)cc21 (stereo not drawn) [Compound 3-24] | > 501 | 21 to 200 | 0.96 | 0.54 | 1.37 | 1.38
CN1CC[C@H]1Cn1nc(C(=O)C2COc3ccc(F)cc3C2)c2ccc(-c3c[nH]nc3F)cc21 (stereo partly drawn) [Compound 5-56] | > 501 | 21 to 200 | 7.32 | 10.2 | 12.4 | 20.2
